This note sets out measurements from PubChem BioAssay (NCI).

Test systems include SF-539 CNS; OVCAR-5 ovarian; SR leukemia; MALME-3M melanoma; UO-31 renal; A549 NSCLC; MOLT-4 leukemia; KM12 colon; SK-MEL-2 melanoma; RPMI-8226 leukemia.
Holding throughout (test): growth of human tumour cells (NCI), 48 h

Molecules are shown by their SMILES.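 Five compound concentrations were applied to cells in 96-well plates for 48 hours; endpoints were derived by simple linear interpolation of the resulting dose-response curve. At the GI50, growth is halved. TGI marks complete inhibition of growth.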

In the case of `Clc1nc(Cl)c2ncn(CCOCCn3cnc4c(Cl)nc(Cl)nc43)c2n1`, the GI50 was 0.17 µM in the experiment on SF-539 CNS; 0.227 µM with OVCAR-5 ovarian; 0.241 µM in the experiment with SR leukemia; 0.221 µM with MALME-3M melanoma; 0.633 µM with UO-31 renal; 0.312 µM in the experiment with A549 NSCLC. The GI50 in the experiment on MOLT-4 leukemia is 0.336 µM; in the experiment on KM12 colon, 0.236 µM. For the same compound, the TGI in the experiment on SF-539 CNS was 0.381 µM; in the experiment with OVCAR-5 ovarian, 0.51 µM; in the experiment with SR leukemia, 54.4 µM; with MALME-3M melanoma, 0.464 µM; with UO-31 renal it was 1.25 µM; in the experiment with A549 NSCLC, 1.3 µM. Besides, the TGI in the experiment on MOLT-4 leukemia was > 100 µM; in the experiment on KM12 colon it was 0.491 µM.

`C[P+]1(c2ccccc2)CCCCC1`: the TGI in the experiment with SF-539 CNS, in the experiment with OVCAR-5 ovarian, with SK-MEL-2 melanoma, in the experiment with MALME-3M melanoma, in the experiment with UO-31 renal and with A549 NSCLC was > 100 µM throughout. The TGI in the experiment with MOLT-4 leukemia, in the experiment on KM12 colon and with RPMI-8226 leukemia was > 100 µM each time.

In the case of `O=[N+]([O-])c1cc(Cc2cc([N+](=O)[O-])c3cccnc3c2O)c(O)c2ncccc12`, the TGI is > 96 µM in the experiment with SF-539 CNS; 76.1 µM with OVCAR-5 ovarian; 29.6 µM with SK-MEL-2 melanoma; 25.5 µM in the experiment with MALME-3M melanoma; 21.8 µM with UO-31 renal; 30.8 µM in the experiment with A549 NSCLC. Also, the TGI in the experiment on MOLT-4 leukemia was > 30.4 µM; with KM12 colon it was 25.8 µM; in the experiment with RPMI-8226 leukemia it was 41.4 µM.

Regarding `O=C1C(Sc2ccc3ccccc3c2)=C(Sc2ccc3ccccc3c2)C(=O)c2ccccc21`, the TGI is 22.8 µM in the experiment on SF-539 CNS; 27.1 µM with OVCAR-5 ovarian; 19.3 µM with SK-MEL-2 melanoma; 15.8 µM in the experiment with UO-31 renal; 21.7 µM in the experiment with A549 NSCLC; 5.9 µM in the experiment on MOLT-4 leukemia.

Consider `C=CC(=O)N[C@@H](/C=C/C(=O)OCC)Cc1ccc(-c2cc(Cl)cc(Cl)c2)cc1`, for which the GI50 with SF-539 CNS is 16.6 µM; in the experiment on OVCAR-5 ovarian it was 21.6 µM; in the experiment on SK-MEL-2 melanoma, 16.3 µM; in the experiment on SR leukemia, 5.63 µM; in the experiment on MALME-3M melanoma, 10.9 µM; in the experiment on UO-31 renal, 4.42 µM. Also, the GI50 with A549 NSCLC was 17.7 µM; in the experiment on MOLT-4 leukemia it was 7.14 µM; in the experiment on KM12 colon it was 16.6 µM. Also, the TGI with SF-539 CNS was 39.1 µM; with OVCAR-5 ovarian, > 100 µM; in the experiment with SK-MEL-2 melanoma it was 38.3 µM; with SR leukemia it was 44.8 µM; in the experiment on MALME-3M melanoma, 34.1 µM; with UO-31 renal, 96.2 µM. In addition, the figures for the TGI in the experiment on A549 NSCLC, in the experiment with MOLT-4 leukemia and with KM12 colon were > 100 µM, > 100 µM and 93.7 µM, respectively.

On to `c1ccc(-c2csc3ncn4cnnc4c23)cc1`, for which the TGI with SF-539 CNS, with SK-MEL-2 melanoma, with UO-31 renal, with A549 NSCLC, with MOLT-4 leukemia and in the experiment with KM12 colon was > 100 µM in each case. Further, in the experiment with RPMI-8226 leukemia, the TGI was > 100 µM.

For `CN1C(=NCCO)NS(=O)(=O)c2ccccc21`, the TGI in the experiment with SF-539 CNS, in the experiment on OVCAR-5 ovarian, in the experiment with SK-MEL-2 melanoma, in the experiment on SR leukemia, in the experiment with UO-31 renal and with A549 NSCLC was > 100 µM throughout. Also, the TGI in the experiment on MOLT-4 leukemia and in the experiment on KM12 colon was > 100 µM throughout.

For `COC(=O)c1cc([N+](=O)[O-])cc([N+](=O)[O-])c1Cl`, the GI50 in the experiment with SF-539 CNS is 1.98 µM; with OVCAR-5 ovarian it was 2.7 µM; in the experiment with SK-MEL-2 melanoma it was 3.52 µM; in the experiment on MALME-3M melanoma, 1.95 µM; in the experiment on UO-31 renal, 1.86 µM; in the experiment on A549 NSCLC, 20.4 µM. In addition, the GI50 is 11.3 µM in the experiment with KM12 colon and 2.4 µM in the experiment on RPMI-8226 leukemia. Further, the TGI in the experiment on SF-539 CNS was 4.22 µM; with OVCAR-5 ovarian, 10.2 µM; in the experiment with SK-MEL-2 melanoma, 12.6 µM; with MALME-3M melanoma, 4.1 µM; with UO-31 renal, 3.95 µM; in the experiment with A549 NSCLC it was 46.8 µM. Also, the TGI in the experiment on KM12 colon amounted to 23.6 µM; in the experiment with RPMI-8226 leukemia, 5.66 µM.

`CN1CCCC1c1cccnc1.O=C(O)c1ccccc1O.O=C([O-])c1ccccc1[OH2+].O=C([O-])c1ccccc1[OH2+].[Mn+2]` (stereo not drawn): the GI50 in the experiment on OVCAR-5 ovarian was 73.1 µM; in the experiment on SK-MEL-2 melanoma, 54.3 µM; with MALME-3M melanoma, 33.1 µM; in the experiment with UO-31 renal, > 100 µM; in the experiment with A549 NSCLC, > 100 µM; in the experiment on MOLT-4 leukemia, 64.9 µM. In addition, the GI50 with KM12 colon is > 100 µM; in the experiment on RPMI-8226 leukemia it was 77.9 µM. The TGI is > 100 µM with OVCAR-5 ovarian; > 100 µM in the experiment with SK-MEL-2 melanoma; 76.6 µM with MALME-3M melanoma; > 100 µM in the experiment on UO-31 renal; > 100 µM in the experiment on A549 NSCLC; > 100 µM in the experiment with MOLT-4 leukemia. Further, the TGI with KM12 colon and with RPMI-8226 leukemia was > 100 µM each time.

`c1ccc2c(CNCCN3CCNCC3)c3ccccc3c(CNCCN3CCNCC3)c2c1`: the GI50 is 16.4 µM in the experiment on SF-539 CNS; 3.99 µM with OVCAR-5 ovarian; 29 µM in the experiment on SK-MEL-2 melanoma; 11.8 µM with MALME-3M melanoma; > 100 µM in the experiment with UO-31 renal; 35.1 µM in the experiment on A549 NSCLC. Besides, the GI50 with MOLT-4 leukemia was 3.88 µM; in the experiment with KM12 colon it was 10.3 µM. For the same compound, the TGI was 37 µM in the experiment with SF-539 CNS; 17.4 µM with OVCAR-5 ovarian; > 100 µM in the experiment on SK-MEL-2 melanoma; 30.2 µM in the experiment on MALME-3M melanoma; > 100 µM in the experiment on UO-31 renal; > 100 µM in the experiment on A549 NSCLC. In addition, the TGI in the experiment on MOLT-4 leukemia was found to be 27.5 µM; with KM12 colon it was 26.8 µM.

In the case of `C/C(=N\NC(=O)C(N)=O)c1c(O)cc(C)oc1=O`, the TGI with SF-539 CNS, with SK-MEL-2 melanoma, in the experiment on SR leukemia, with MALME-3M melanoma, with UO-31 renal and in the experiment with A549 NSCLC was > 100 µM each time. Besides, the TGI with MOLT-4 leukemia and in the experiment with KM12 colon was > 100 µM throughout.

In the case of `C=C1C=CC2(Br)OC3CC(C)(Cl)C(Br)CC13C2(C)C` (stereo not drawn), the TGI was 38.9 µM in the experiment with SF-539 CNS; 57.6 µM in the experiment on OVCAR-5 ovarian; 31.9 µM in the experiment with SK-MEL-2 melanoma; 34.5 µM with MALME-3M melanoma; 70.5 µM with UO-31 renal; > 100 µM in the experiment with A549 NSCLC. The results for the TGI in the experiment with MOLT-4 leukemia, with KM12 colon and in the experiment with RPMI-8226 leukemia were 34.9 µM, 58.9 µM and 53.1 µM, respectively.
